Measured values as given in patent publication US20220017495A1, “CONJUGATES OF BIVALENT EVANS BLUE DYE DERIVATIVES AND METHODS OF USE” (THE UNITED STATES OF AMERICA, AS REPRESENTED BY THE …, priority 2019, published 2022).
Counter-ions that a name gives are not always drawn.

Columns and labels:
[1] = Optical properties: absorption, emission, quantum yield and quantum efficiency; format: physicochemical; parameters: ϵ600nm / ϵpeak: unit not given here; settings: for Molar ϵ600nm / Molar ϵpeak: in M-1cm-1 (unit assumed); for Absorption peak / Emission peak: in BSA; for QE: QE=ε*QY; for QY600nm: relative, NtEB set as 1; for Extinction coefficient: as given in text (peak, BSA)
Description: The absorption and the emission spectra of N(tEB)2, NtEB and EB were measured in PBS, BSA and FBS buffers. […] The similar emission peaks of the three EB derivatives in BSA were recorded at 661, 652 and 660 nm, respectively.
Fluorescence brightness of each compound was further compared with equal molar amount of N(tEB)2, NtEB, or EB in the presence or absence of human serum albumin.
Quantum efficiency is a dye metric encompassing both the quantum yield and absorption coefficient (QE=ε*QY).

[2] = target: T1, human serum albumin (HSA) (Homo sapiens, UniProt P02768); test: Biolayer interferometry (BLI) binding to biotinylated HSA
Description: In this study, we used the streptavidin conjugated biosensors (Pall Fort6Bio LLC, CA). We preincubated the biosensors with biotinylated HSA (Abeam Inc., Cambridge, Mass.) for 10 minutes. After removing the unbound biotinylated HSA, the biosensors were washed for 1 minute. After blocking the spare biosensor, we added EZ-Link™ Sulfo-NHS-Biotin (Thermo Fisher Scientific, Rockford, Ill.) to each well and then removed it and washed the wells.
Association of a given dilution of a compound with the albumin-derivatized biosensor was measured for 600 seconds and then in turn, dissociation of the compound from the albumin measured for another 600 seconds. Data was analyzed using the OCTET Data Analysis software 7.0.

[3] = system: U-87MG, UM-22B and INS-1 tumor mouse xenografts; test: PET tumor uptake and ex vivo biodistribution in tumor xenografts; parameters: species or system nude mice; settings: for Tumor retention compared with IgG: U-87MG xenografts
Excerpt: For each scan, regions of interest (ROIs) were drawn using vendor software (ASI Pro 5.2.4.0; Siemens Medical Solutions) on decay-corrected whole-body coronal images. […] These values were then divided by the administered activity to obtain (assuming a tissue density of 1 g/mL) an image-ROI-derived percentage injected dose per gram (% ID/g).
PET images were reconstructed without correction for attenuation or scattering using a three-dimensional ordered subsets expectation maximization algorithm.

[4] = target: T1, human serum albumin (HSA); test: Atomic force microscopy of complexes with HSA; parameters: purchased Abeam Inc., Cambridge, Mass; (so in the source); settings: molar ratio 1:10, 1:1 and 10:1 with HSA
Description: We performed atomic force microscopy (AFM) to study the morphological structures of the complex. […] Samples ([…]) were cast on freshly peeled mica substrate, followed by drying, rinsing, and dehumidifying. AFM was carried out in tapping mode in air on a PicoForce Multimode AFM (Bruker, CA) equipped with a NANOSCOPE V controller, a type E scanner head, and a sharpened TESP-SS (Bruker, CA) AFM cantilever. An inverted optical microscope (IX71, Olympus, Japan) was used to capture pictures. AFM images were then analyzed by NANOSCOPE Software (version 7.3-8.15, Bruker, CA). For quantification, 10 different fields of view in one image were selected to quantify the “dimer” and the “monomer”. The size and morphology of dimer and monomer was defined by ImageJ (NIH, MD), a public domain Java image processing program.

[5] = system: blood glucose; test: Blood glucose monitoring in T2DM mice; format: in vivo, db/db mice

T1 sequence (P02768 25-609): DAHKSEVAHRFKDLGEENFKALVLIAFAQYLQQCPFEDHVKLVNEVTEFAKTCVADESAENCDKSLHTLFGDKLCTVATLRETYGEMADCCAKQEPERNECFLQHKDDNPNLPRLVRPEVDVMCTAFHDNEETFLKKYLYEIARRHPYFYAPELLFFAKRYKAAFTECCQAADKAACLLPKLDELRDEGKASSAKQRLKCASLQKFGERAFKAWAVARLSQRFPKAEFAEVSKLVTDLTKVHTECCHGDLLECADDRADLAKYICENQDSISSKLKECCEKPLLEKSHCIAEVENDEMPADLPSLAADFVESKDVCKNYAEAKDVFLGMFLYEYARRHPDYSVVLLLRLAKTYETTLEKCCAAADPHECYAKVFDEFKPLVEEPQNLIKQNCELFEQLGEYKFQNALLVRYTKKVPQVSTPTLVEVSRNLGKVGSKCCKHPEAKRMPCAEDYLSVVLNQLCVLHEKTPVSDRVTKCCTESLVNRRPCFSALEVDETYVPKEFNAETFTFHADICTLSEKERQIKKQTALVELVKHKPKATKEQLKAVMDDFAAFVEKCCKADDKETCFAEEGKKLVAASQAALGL

Row | Compound | OD600nm ([1]; In BSA) | ODpeak ([1]; In BSA) | ϵ600nm ([1]; In BSA) | ϵpeak ([1]; In BSA) | Molar ϵ600nm ([1]; In BSA) | Molar ϵpeak ([1]; In BSA) | OD600nm ([1]; In FBS) | ODpeak ([1]; In FBS) | ϵ600nm ([1]; In FBS) | ϵpeak ([1]; In FBS) | Molar ϵ600nm ([1]; In FBS) | Molar ϵpeak ([1]; In FBS) | OD600nm ([1]; In PBS) | ODpeak ([1]; In PBS) | ϵ600nm ([1]; In PBS) | ϵpeak ([1]; In PBS) | Molar ϵ600nm ([1]; In PBS) | Molar ϵpeak ([1]; In PBS) | Absorption peak [1] | Emission peak [1] | other results
1 | Cc1cc(-c2ccc(N=Nc3ccc4c(S(=O)(=O)O)cc(S(=O)(=O)O)c(N)c4c3O)c(C)c2)ccc1N=Nc1ccc2c(S(=O)(=O)O)cc(S(=O)(=O)O)c(N)c2c1O [EB, tetrasodium salt of 6,6′-{(3,3′-dimethyl[1,1′-biphenyl]-4,4′-diyl)bis[diazene-2,1-diyl]}bis(4-amino-5-hydroxynaphthalene-1,3-disulfonate)] | 0.905 | 0.9551 | 88.14 | 93.02 | 84683.69 | 89371.71 | 0.8414 | 0.9057 | 81.94 | 88.21 | 78732.44 | 84749.19 | 0.9906 | 0.9983 | 96.47 | 97.22 | 92693.55 | 93414.07 | 548 nm | 660 nm | –
2 | Cc1cc(-c2ccc(NC(=O)CN3CCN(CC(=O)O)CCN(CC(=O)Nc4ccc(-c5ccc(N=Nc6ccc7c(S(=O)(=O)O)cc(S(=O)(=O)O)c(N)c7c6O)c(C)c5)cc4C)CC3)c(C)c2)ccc1N=Nc1ccc2c(S(=O)(=O)O)cc(S(=O)(=O)O)c(N)c2c1O [N(tEB)2] | 0.1245 | 0.183 | 27.79 | 40.85 | 37553.09 | 55198.51 | 0.1561 | 0.1931 | 34.84 | 43.10 | 47084.63 | 58244.99 | 0.0987 | 0.1806 | 22.03 | 40.31 | 29771.00 | 54474.60 | 610 nm | 661 nm | Kd times lower than EB complex with albumin [2]: 2 times; Kd times lower than NtEB complex with albumin [2]: 43 times; Kon value [2]: 47100 M⁻¹ s⁻¹; koff value [2]: 0.10 s⁻¹; Kd ([2]; pH 7.4): 1.8 µM; Koff ([2]; pH 7.4): 0.1009 s⁻¹; Kon ([2]; pH 7.4): 4.7128; QE improvement over NtEB [1]: 5 fold; Quantum yield enhancement over NtEB [1]: 2 fold; QE ([1]; In BSA): 78929.01; QY600nm ([1]; In BSA): 2.10; QE ([1]; In FBS): 98962.49; QY600nm ([1]; In FBS): 2.10; Extinction coefficient [1]: 55198 M⁻¹ cm⁻¹; Tumor retention compared with IgG ([3]; 24 h p.i.): comparable; Tumor retention compared with IgG ([3]; 48 h p.i.): significantly higher; Tumor uptake compared with NtEB ([3]; ^64Cu labeled, all tested tumor models, 24 and/or 48 h p.i.): significantly improved; Dimerization of albumin (AFM) [4]: observed at all tested molar ratios
3 | Cc1cc(-c2ccc(NC(=O)CN3CCN(CC(=O)O)CCN(CC(=O)O)CC3)c(C)c2)ccc1N=Nc1ccc2c(S(=O)(=O)O)cc(S(=O)(=O)O)c(N)c2c1O [NtEB] | 0.0759 | 0.1108 | 18.98 | 27.70 | 15696.60 | 22914.15 | 0.0883 | 0.1132 | 22.08 | 28.30 | 18261.00 | 23410.48 | 0.0857 | 0.1533 | 21.43 | 38.33 | 17723.31 | 31703.42 | 550 nm | 652 nm | Kd ([2]; pH 7.4): 79 µM; Koff ([2]; pH 7.4): 0.7947 s⁻¹; kon ([2]; pH 7.4): 13500 M⁻¹ s⁻¹; QE ([1]; In BSA): 15696.60; QY600nm ([1]; In BSA): 1; QE ([1]; In FBS): 18261.00; QY600nm ([1]; In FBS): 1; Extinction coefficient [1]: 22914 M⁻¹ cm⁻¹; Dimerization of albumin (AFM) [4]: no apparent albumin dimers
4 | exendin-4: exendin-4 peptide, a glucagon-like peptide-1 (GLP-1) agonist | – | – | – | – | – | – | – | – | – | – | – | – | – | – | – | – | – | – | – | – | Reduction of glucose level ([5]; 1 h p.i., normalized to baseline plasma glucose): approximately 50%; Glucose level at recovery ([5]; at 12 h): 389.67 ± 44.3 mg/dL; Effective time window (from 50% reduction of glucose level to rebound to the original level) ([5]; single subcutaneous injection): 10.3 h; Glucose recovery time ([5]; single subcutaneous injection): 12 h
